Data reported in patent US8609362B2, “G-proteins” (Givaudan SA, priority 2002, dated 2013).
Where two headings read alike, the source gives them in different places. Residues, ends and D or L forms follow the SMILES beside them.

Assays:
human TAS1R2/TAS1R3 = molecular target: T1, human TAS1R2/TAS1R3 (Homo sapiens, UniProt Q7RTX0+Q8TE23); assay: Fluo-4 calcium assay, cells transfected with human sweet receptor TAS1R2/TAS1R3 and expressing a promiscuous G-protein; type: cell-based; details: for fluorescence signal with Gα16-gustducin 44, times stronger than wild-type Gα16: HEK293T cells; for fluorescence signal with Gα16-gustducin 44, times stronger than wild-type Gα16 / fluorescence signal (in words): ligand 2.5 mM
T1 construct: expressed in transfected cells; host or cells: HEK293T cells stably expressing the G-protein, co-transfected with T1R2 and T1R3 cDNA
T1 sequence (Q8TE23 20-839): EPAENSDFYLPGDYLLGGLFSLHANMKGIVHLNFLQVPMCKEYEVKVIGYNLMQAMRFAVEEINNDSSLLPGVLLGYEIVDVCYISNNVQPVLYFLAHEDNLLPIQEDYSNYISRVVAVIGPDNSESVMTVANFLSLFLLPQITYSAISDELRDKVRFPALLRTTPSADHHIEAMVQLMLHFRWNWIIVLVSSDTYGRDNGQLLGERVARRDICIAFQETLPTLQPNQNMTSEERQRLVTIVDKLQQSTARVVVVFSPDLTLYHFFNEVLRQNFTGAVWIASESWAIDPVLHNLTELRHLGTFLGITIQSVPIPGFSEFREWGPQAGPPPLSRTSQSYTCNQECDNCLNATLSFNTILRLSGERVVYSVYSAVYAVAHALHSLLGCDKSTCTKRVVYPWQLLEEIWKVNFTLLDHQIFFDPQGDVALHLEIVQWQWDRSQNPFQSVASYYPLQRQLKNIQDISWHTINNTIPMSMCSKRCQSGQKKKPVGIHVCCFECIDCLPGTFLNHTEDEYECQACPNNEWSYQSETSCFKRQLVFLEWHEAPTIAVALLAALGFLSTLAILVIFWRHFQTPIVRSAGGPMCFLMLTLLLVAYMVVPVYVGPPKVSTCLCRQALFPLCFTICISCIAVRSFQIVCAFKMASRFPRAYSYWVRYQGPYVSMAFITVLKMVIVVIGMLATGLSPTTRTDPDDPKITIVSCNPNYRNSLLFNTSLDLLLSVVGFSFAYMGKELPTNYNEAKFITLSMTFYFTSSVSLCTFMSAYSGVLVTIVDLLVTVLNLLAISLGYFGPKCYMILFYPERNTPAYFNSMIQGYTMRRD
T1 sequence (Q7RTX0 21-852): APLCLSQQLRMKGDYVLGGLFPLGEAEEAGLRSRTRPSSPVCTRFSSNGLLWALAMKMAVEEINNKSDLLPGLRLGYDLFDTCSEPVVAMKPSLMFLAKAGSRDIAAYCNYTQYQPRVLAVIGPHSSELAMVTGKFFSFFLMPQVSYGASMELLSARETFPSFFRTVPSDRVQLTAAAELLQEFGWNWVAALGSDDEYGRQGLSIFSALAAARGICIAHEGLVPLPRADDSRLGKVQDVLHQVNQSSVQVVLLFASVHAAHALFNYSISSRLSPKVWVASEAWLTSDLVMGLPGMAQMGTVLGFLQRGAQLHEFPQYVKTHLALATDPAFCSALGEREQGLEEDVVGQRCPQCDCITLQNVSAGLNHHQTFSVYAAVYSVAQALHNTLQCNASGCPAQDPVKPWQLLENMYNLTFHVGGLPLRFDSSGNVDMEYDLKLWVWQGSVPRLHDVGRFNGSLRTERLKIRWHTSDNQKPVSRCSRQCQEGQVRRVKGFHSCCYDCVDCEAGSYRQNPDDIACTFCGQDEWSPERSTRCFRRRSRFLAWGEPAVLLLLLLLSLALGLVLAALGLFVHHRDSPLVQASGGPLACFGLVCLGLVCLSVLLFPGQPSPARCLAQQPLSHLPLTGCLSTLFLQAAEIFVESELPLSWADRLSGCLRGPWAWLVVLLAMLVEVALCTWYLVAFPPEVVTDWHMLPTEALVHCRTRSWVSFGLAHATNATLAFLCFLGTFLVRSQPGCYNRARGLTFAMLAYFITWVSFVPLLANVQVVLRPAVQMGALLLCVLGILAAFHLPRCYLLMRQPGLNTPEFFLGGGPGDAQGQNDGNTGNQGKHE
Experimental: (§1) At day 0, cells stably expressing the G-protein are plated in a 6-well plate at a density of 800,000-950,000 cells per well and grown overnight in selective growth media. On day 1, the media is changed to an antibiotic-free growth media and the cells are transfected using 2 μg of T1 R2 and 2 μg of T1 R3 cDNA and 10 μl of Lipofectamine 2000 (Invitrogen). The cells are maintained overnight in antibiotic-free growth media. On day 2, the cells are replated into a black, clear-bottom 96 well plate at 20,000 cells per well and grown overnight. The morning of the calcium assay, the media is replaced with low glucose media supplemented with Glutamax and dialyzed FBS to minimize receptor desensitization by sugars and glutamate. The cells are further incubated in this media for 6 hours at 37 degrees C. At the end of this period, the cells are processed for the calcium assay according to conditions described above.
(§2) Following the methodology as described in Example 5 the following results were obtained: […]

mouse T2R5 = molecular target: T2, mouse T2R5 (Mus musculus, UniProt Q9JKT4); assay: Fluo-4 calcium assay, cells transfected with mouse bitter receptor T2R5 and expressing a promiscuous G-protein; type: cell-based; details: for increase in mean fluorescence over baseline following ligand addition: ligand 10 μM
T2 construct: expressed in transfected cells; host or cells: HEK293T cells stably expressing Gα16gustducin44 or Gα16
T2 sequence (Q9JKT4 1-300): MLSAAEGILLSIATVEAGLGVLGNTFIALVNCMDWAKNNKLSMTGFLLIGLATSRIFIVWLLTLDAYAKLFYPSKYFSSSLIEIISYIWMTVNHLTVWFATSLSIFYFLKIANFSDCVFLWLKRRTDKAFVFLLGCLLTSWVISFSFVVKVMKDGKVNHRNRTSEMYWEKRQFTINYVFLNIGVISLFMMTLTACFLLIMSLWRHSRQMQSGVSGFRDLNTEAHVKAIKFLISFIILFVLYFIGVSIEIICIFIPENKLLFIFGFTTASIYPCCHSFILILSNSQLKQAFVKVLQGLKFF
Experimental: (§3) At day 0, cells stably expressing the G-protein are plated in black, clear-bottom 96-well plate at 20,000 cells per well and grown overnight in selective growth media. On day 1, the media is changed to an antibiotic-free growth media and the cells are transfected using 300 ng GPCR DNA and 0.6 μl of Lipofectamine 2000 (Invitrogen). The cells are grown overnight and processed the next day using the Fluo-4 calcium assay conditions described in Example 2 above.
as §2

[1] = test system: sham transfected (control); assay: Fluo-4 calcium assay, sham transfected control cells of Table 2; type: cell-based
Experimental: as §3, §2

human TAS2R16 = molecular target: T3, human TAS2R16 (Homo sapiens, UniProt Q9NYV7); assay: Fluo-4 calcium assay, cells transiently transfected with human TAS2R16 and expressing a promiscuous G-protein; type: cell-based; details: ligand 5 mM; for fluorescent signal with Gα16-gustducin 44, times stronger than reference chimeric G-protein Gα16-z44 / fluorescent signal with Gα16-gustducin 44, times stronger than wild-type Gα16: HEK293T cells, Flexstation; for fluorescent signal with Gα16-gustducin 44, times stronger than reference chimeric G-protein Gα16-z44 / fluorescent signal with Gα16-gustducin 44, times stronger than wild-type Gα16 / fluorescent signal (in words): TAS2R16; for increase in mean fluorescence over baseline following ligand addition: human TAS2R16
T3 construct: expressed in transfected cells; host or cells: HEK293T cells stably expressing Gα16gustducin44, Gα16 or Gα16z44
T3 sequence (Q9NYV7 1-291): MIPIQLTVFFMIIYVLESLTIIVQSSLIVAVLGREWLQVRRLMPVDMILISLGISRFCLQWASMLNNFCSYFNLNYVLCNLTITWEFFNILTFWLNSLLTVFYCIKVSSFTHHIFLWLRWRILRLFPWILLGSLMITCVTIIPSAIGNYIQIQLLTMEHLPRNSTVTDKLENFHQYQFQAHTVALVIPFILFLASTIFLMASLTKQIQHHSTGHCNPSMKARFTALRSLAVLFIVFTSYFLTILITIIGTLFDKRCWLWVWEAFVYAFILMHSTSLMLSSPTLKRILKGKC
Experimental: The protocol is described in “G-protein coupled receptors (Signal Transduction Series)”; Editors: Tatsuya Haga and Gabriel Berstein, 1st ed., 424 pp.CRC Press—Boca Raton, Fla.; September 1999, and may be summarised as follows: • 1. Day 0: 96-well plates are seeded with 20K cells per well and maintained at 37 degrees C. overnight in nutritive growth media. • 2. Day 1: Cells are transfected using 300 ng of GPCR DNA and 0.6 μl of Lipofectamine 2000 (Invitrogen) per well. Transfected cells are and maintained at 37 degrees C. overnight in nutritive growth media. • 3.
as §3

[2] = test system: sham transfected (control); assay: Fluo-4 calcium assay, sham transfected control cells of Table 1; type: cell-based
Experimental: as §3

human TAS2R38 = molecular target: T4, human TAS2R38 (Homo sapiens, UniProt P59533); assay: Fluo-4 calcium assay, tetracycline-inducible cells stably expressing human TAS2R38 and G16gust44; type: cell-based; details: ligand 250 μM; for fluorescence signal (in words): HEK293 T-Rex cells, TAS2R38, G16-gustducin 44
T4 construct: expressed in transfected cells
T4 sequence (P59533 1-333): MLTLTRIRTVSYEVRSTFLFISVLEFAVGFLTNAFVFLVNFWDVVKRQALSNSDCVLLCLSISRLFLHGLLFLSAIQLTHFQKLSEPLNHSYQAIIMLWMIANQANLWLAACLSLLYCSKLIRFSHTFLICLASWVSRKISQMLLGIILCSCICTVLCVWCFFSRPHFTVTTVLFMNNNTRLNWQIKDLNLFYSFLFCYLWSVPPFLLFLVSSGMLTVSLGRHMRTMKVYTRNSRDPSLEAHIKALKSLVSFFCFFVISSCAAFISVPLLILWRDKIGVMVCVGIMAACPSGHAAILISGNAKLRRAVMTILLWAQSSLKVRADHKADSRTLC
Excerpt: (§4) The following results were obtained:

[3] = test system: G-protein only (control w/o tetracycline); assay: Fluo-4 calcium assay, G-protein only control w/o tetracycline (TAS2R38 cell line); type: cell-based; details: Gα16gustducin44, ligand 250 μM
Excerpt: as §4

[4] = test system: G-protein only (control w/o tetracycline); details: Gα16gustducin44, ligand 250 μM
Experimental: All assays are performed using black, clear-bottom 96-well plates that have been seeded the day before with 20K transfected cells per well and have been maintained at 37 degrees C. overnight in appropriate growth media. At the time of the assay, the growth media is discarded and cells are incubated for 1 hour (at room temperature in the dark) with 75 μl of a calcium assay solution consisting of 1.5 μM Fluo-4 AM (Molecular Probes) and 2.5 mM probenicid (Sigma-Aldrich) dissolved in a Hanks balanced salts solution (HBSS) that has been supplemented with 10 mM Hepes, 200 μM calcium chloride and 0.1% bovine serum albumin, pH 7.4 at 37 degrees C. […] For assay reading, the plate is placed in a fluorescent microplate reader, for example the Flexstation (Molecular Devices), and receptor activation is initiated following addition of 20 μl of a 10× concentrated ligand stock solution. Fluorescence is continuously monitored for 15 seconds prior to ligand addition and for 45-75 seconds after ligand addition. Receptor activation levels are defined as by the two following equations: % Activation=(Maximum fluorescence−baseline fluorescence/baseline fluorescence)*100 or Fluorescence Increase=Maximum Fluorescence—baseline fluorescence, where baseline fluorescence represents the average fluorescence levels prior to ligand addition. […]

[5] = test system: sham transfected (control); assay: Fluo-4 calcium assay, sham transfected control cells of Table 7; type: cell-based
Experimental: as §1, §2

[6] = G-protein Gα16gustducin44, ligand 2.5 mM

CC1=CC(=O)[N-]S(=O)(=O)O1.[K+] [acesulfame K]
fluorescence signal with Gα16-gustducin 44, times stronger than wild-type Gα16 (human TAS1R2/TAS1R3): 2 times | fluorescence signal (in words) (human TAS1R2/TAS1R3): robust flurorescence signal

COC(=O)[C@H](Cc1ccccc1)NC(=O)[C@@H](N)CC(=O)O [aspartame] (H-Asp-Phe-OMe)
fluorescence signal with Gα16-gustducin 44, times stronger than wild-type Gα16 (human TAS1R2/TAS1R3): 2 times | fluorescence signal (in words) (human TAS1R2/TAS1R3): robust flurorescence signal

C[C@@H]1C[C@@H]([C@H](O)CC2CC(=O)NC(=O)C2)C(=O)[C@@H](C)C1 [cycloheximide]
fluorescence signal (in words) (mouse T2R5; HEK293T cells, mouse T2R5, Gα16-gustducin 44, ligand 10 uM): robust flurorescence signal | fluorescence signal with Gα16-gustducin 44, times stronger than wild-type Gα16 (mouse T2R5; HEK293T cells, mouse T2R5, ligand 10 uM): 5 times | increase in mean fluorescence over baseline following ligand addition (mouse T2R5; mouse T2R5, G-protein Gα16): 2569 RFUs | increase in mean fluorescence over baseline following ligand addition (mouse T2R5; mouse T2R5, G-protein Gα16gustducin44): 10407 RFUs | increase in mean fluorescence over baseline following ligand addition ([1]; G-protein Gα16, ligand 10 μM): 1705 RFUs | increase in mean fluorescence over baseline following ligand addition ([1]; G-protein Gα16gustducin44, ligand 10 μM): 3989 RFUs

OC[C@H]1O[C@@H](Oc2ccccc2)[C@H](O)[C@@H](O)[C@@H]1O [phenyl-β-D-glucopyranoside]
fluorescent signal with Gα16-gustducin 44, times stronger than reference chimeric G-protein Gα16-z44 (human TAS2R16): about 3 times | fluorescent signal with Gα16-gustducin 44, times stronger than wild-type Gα16 (human TAS2R16): about 7 times | fluorescent signal (in words) (human TAS2R16): robust fluorescent signal | receptor activation following ligand stimulation, Gα16gustducin44 cells compared with Gα16 cells (in words) (human TAS2R16; hTAS2R16): greater degree of receptor activation | increase in mean fluorescence over baseline following ligand addition (human TAS2R16; G-protein Gα16): 3494 RFUs | increase in mean fluorescence over baseline following ligand addition (human TAS2R16; G-protein Gα16gustducin44): 23821 RFUs | increase in mean fluorescence over baseline following ligand addition (human TAS2R16; G-protein Gα16z44): 8296 RFUs | increase in mean fluorescence over baseline following ligand addition ([2]; G-protein Gα16, ligand 5 mM): 1024 RFUs | increase in mean fluorescence over baseline following ligand addition ([2]; G-protein Gα16gustducin44, ligand 5 mM): 2162 RFUs | increase in mean fluorescence over baseline following ligand addition ([2]; G-protein Gα16z44, ligand 5 mM): 1541 RFUs

NC(=S)Nc1ccccc1 [phenylthiocarbamide]
increase in mean fluorescence over baseline following ligand addition (human TAS2R38; G-protein + human TAS2R38 (with tetracycline), Gα16gustducin44): 8989 RFUs | fluorescence signal (in words) (human TAS2R38): robust fluorescence signal | increase in mean fluorescence over baseline following ligand addition [3]: 3422 RFUs

CCCc1cc(=O)[nH]c(=S)[nH]1 [propythiouracil]
fluorescence signal (in words) (human TAS2R38): robust response

OCc1ccccc1O[C@@H]1O[C@H](CO)[C@@H](O)[C@H](O)[C@H]1O [salicin]
fluorescent signal with Gα16-gustducin 44, times stronger than reference chimeric G-protein Gα16-z44 (human TAS2R16): about 3 times | fluorescent signal with Gα16-gustducin 44, times stronger than wild-type Gα16 (human TAS2R16): about 7 times | fluorescent signal (in words) (human TAS2R16): robust fluorescent signal

O=C1C[C@@H]2OCC=C3CN4CC[C@]56c7ccccc7N1[C@H]5[C@H]2[C@H]3C[C@H]46 [strychnine]
increase in mean fluorescence over baseline following ligand addition [4]: 13238 RFUs

OC[C@H]1O[C@H](O[C@]2(CCl)O[C@H](CCl)[C@@H](O)[C@@H]2O)[C@H](O)[C@@H](O)[C@H]1Cl [sucralose]
increase in mean fluorescence over baseline following ligand addition (human TAS1R2/TAS1R3; G-protein Gα15, ligand 2.5 mM): 1300 RFUs | increase in mean fluorescence over baseline following ligand addition (human TAS1R2/TAS1R3; [6]): 4617 RFUs | fluorescence signal with Gα16-gustducin 44, times stronger than wild-type Gα16 (human TAS1R2/TAS1R3): 2 times | fluorescence signal (in words) (human TAS1R2/TAS1R3): robust flurorescence signal | increase in mean fluorescence over baseline following ligand addition ([5]; G-protein Gα15, ligand 2.5 mM): 643 RFUs | increase in mean fluorescence over baseline following ligand addition [5, 6]: 1370 RFUs
